Assay results from patent US7795255B2, “Rigidified compounds for modulating heparanase activity” (InSight Biopharmaceuticals Ltd., priority 2005, dated 2010).

Assays:
[1] = target: T1, recombinant human pro-heparanase (H60) (Homo sapiens, UniProt Q9Y251); assay: Pro-heparanase (H60) activation in a cell-based assay; details: inhibition of pro-heparanase activation in CHO cells; NI = no inhibition
T1 construct: Heparanase maturation involves the removal of the signal peptide, transforming the 65 kDa pre-pro-heparanase into a 60 kDa pro-heparanase; made in house
T1 sequence (Q9Y251 36-543): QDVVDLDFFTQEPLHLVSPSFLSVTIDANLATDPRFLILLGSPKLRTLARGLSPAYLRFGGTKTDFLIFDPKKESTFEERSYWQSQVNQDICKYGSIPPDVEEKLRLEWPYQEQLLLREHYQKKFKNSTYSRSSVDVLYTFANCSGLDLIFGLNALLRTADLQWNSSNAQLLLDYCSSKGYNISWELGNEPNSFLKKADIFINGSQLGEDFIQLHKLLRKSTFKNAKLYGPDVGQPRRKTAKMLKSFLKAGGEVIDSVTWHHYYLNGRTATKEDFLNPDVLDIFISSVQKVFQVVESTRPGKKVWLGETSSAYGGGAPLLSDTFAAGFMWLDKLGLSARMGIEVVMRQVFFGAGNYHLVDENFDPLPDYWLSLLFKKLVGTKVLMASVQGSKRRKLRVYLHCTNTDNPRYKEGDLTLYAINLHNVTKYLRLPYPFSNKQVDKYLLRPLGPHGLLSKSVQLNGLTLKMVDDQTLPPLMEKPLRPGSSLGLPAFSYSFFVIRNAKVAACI
Protocol: Pro-heparanase (H60) activation in a cell-based assay: Chinese hamster ovary (CHO) cells were grown in complete F12 medium supplemented with 10% fetal calf serum (FCS). […] The plates were incubated for 24 hours in a 37° C. humidified incubator with 5% CO2. […] The plates were further incubated for additional 4 hours. The pro-heparanase was allowed to internalize by the cells and further processed to generate the active 53 kDa heparanase. At the end of the incubation, the cells were lysed by three consecutive cycles of freezing and thawing in a −80° C. freezer and a 37° C. shaker.
The rigidified compounds described herein were tested for inhibition of pro-heparanase activation in the cell-based assay described above.

β-FGF = β-FGF (Homo sapiens, UniProt P09038); assay: ELISA for determination of binding of β-FGF to heparin; details: for IC50: inhibition of β-FGF binding to heparin, NI = no inhibition; for inhibition of β-FGF binding to heparin: inhibition towards both growth factors
β-FGF, sequence (P09038 143-288): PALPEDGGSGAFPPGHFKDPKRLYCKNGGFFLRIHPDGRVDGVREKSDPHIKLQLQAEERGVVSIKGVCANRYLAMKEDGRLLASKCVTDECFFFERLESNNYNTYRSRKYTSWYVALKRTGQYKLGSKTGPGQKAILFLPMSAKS
Protocol: ELISA for determination of binding of β-FGF to heparin: 96-well microplates were coated for 2 hours at 23-25° C. with 5 μg/ml heparin-albumin (Rimon Biotech) and blocked with 1% BSA in PBS, with 0.05% Tween, and 0.01% thimerosal for 2 hours. β-FGF was added to the plates at a concentration of 10 ng/ml and plates were incubated for 45 minutes at 23-25° C. The amount of β-FGF bound to heparin was detected using anti-FGF monoclonal antibody (Sigma Cat. No. F6162) at a concentration of 2.5 ng/ml and secondary antibodies Sheep anti-mouse IgG linked to horseradish peroxidase (1:3000) TMB (Pierce Cat. No. 34021) was used as a substrate for peroxidase. The plates were read at 450 nm with a reference wavelength of 630 nm using a VERSAmax plate reader.

[2] = target: T2, vascular endothelial growth factor (VEGF) (Homo sapiens, UniProt P15692); assay: ELISA for determination of binding of VEGF to heparin; details: for IC50: inhibition of VEGF binding to heparin, NI = no inhibition; for inhibition of VEGF binding to heparin: inhibition towards both growth factors
T2 sequence (P15692 27-191 isoform P15692-4): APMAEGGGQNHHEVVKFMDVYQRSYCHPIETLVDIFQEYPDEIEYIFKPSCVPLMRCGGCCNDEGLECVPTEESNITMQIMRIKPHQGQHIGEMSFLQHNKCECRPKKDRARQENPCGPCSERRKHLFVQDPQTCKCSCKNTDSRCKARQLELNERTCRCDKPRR
Protocol: Enzyme-linked immunosorbent assay (ELISA) for determination of binding of vascular endothelial growth factor (VEGF) to heparin: 96-well microplates were coated for 2 hours. at 23-25° C. with 5 μg/ml heparin-albumin (Rimon Biotech) and blocked with 1% bovine serum albumin (BSA) in phosphate buffer (PBS) with 0.05% Tween and 0.01% thimerosal for 2 hours. VEGF was added to the plates at a concentration of 10 ng/ml and the plates were thereafter incubated for 45 minutes at 23-25° C. The amount of VEGF bound to heparin was detected using anti-VEGF monoclonal antibody (Sigma Cat. No. V4758) at a concentration of 0.26 μg/ml and secondary antibodies Sheep anti-mouse IgG linked to horseradish peroxidase (1:2000) using 3,3′,5,5′-tetramethylbenzidine (TMB, Pierce Cat. No. 34021) as a substrate for peroxidase. The plates were read at 450 nm with a reference wavelength of 630 nm using a VERSAmax plate reader. […] Percent inhibition was calculated as compared with a control pre-incubated with a solution of 1% DMSO and the results are presented in Table 3 below.

Row | Molecule | IC50 [1] [nM] | IC50 (β-FGF) [nM] | inhibition of β-FGF binding to heparin (β-FGF) | IC50 [2] [nM] | inhibition of VEGF binding to heparin [2]
1 | CC(C)(CC(=O)NCC(=O)OC(C)(C)C)CN1C(=O)c2cc3oc(-c4ccc(Cl)cc4)cc3n2C1=S [Compound 19, {4-[2-(4-Chloro-phenyl)-6-oxo-4-thioxo-6H-1-oxa-3b,5-diaza-cyclopenta[a]pentalen-5-yl]-3,3-dimethyl-butyrylamino}-acetic acid tert-butyl ester] | 420 | 500 | sub-micromolar | 510 | sub-micromolar
2 | CC(C)(CC(=O)O)CN1C(=O)c2cc3oc(-c4ccc([N+](=O)[O-])cc4)cc3n2C1=S [Compound 8, 3,3-Dimethyl-4-[2-(4-nitro-phenyl)-6-oxo-4-thioxo-6H-1-oxa-3b,5-diaza-cyclopenta[a]pentalen-5-yl]-butyric acid] | 780 | – | – | – | –
3 | CCN(CC)C(=O)CC(C)(C)CN1C(=O)c2cc3oc(-c4ccc(Cl)cc4)cc3n2C1=S [Compound 13, 4-[2-(4-Chloro-phenyl)-6-oxo-4-thioxo-6H-1-oxa-3b,5-diaza-cyclopenta[a]pentalen-5-yl]-N,N-diethyl-3,3-dimethyl-butyramide] | 1400 | 220 | sub-micromolar | 550 | sub-micromolar
4 | 4-[2-(4-Nitro-phenyl)-4,6-dioxo-6H-1-oxa-3b,5-diaza-cyclopenta[a]pentalen-5-yl]-butyric acid ethyl ester [Compound 30] | 3900 | – | – | 100 | –
5 | CCOC(=O)CCCn1c(=S)sc2c(N)snc21 [Compound 43, ethyl 4-(3-amino-5-thioxo-thiazolo[4,5-c]isothiazol-6-yl)-butyric acid ethyl ester] | 25000 | – | – | – | –
6 | CC(C)(CC(=O)On1nnc2ccccc2c1=O)CN1C(=O)c2cc3oc(-c4ccc(Cl)cc4)cc3n2C1=S [Compound 12, 4-[2-(4-Chloro-phenyl)-6-oxo-4-thioxo-6H-1-oxa-3b,5-diaza-cyclopenta[a]pentalen-5-yl]-3,3-dimethyl-butyric acid 4-oxo-4H-benzo[d][1,2,3]triazin-3-yl ester] | – | 160 | sub-micromolar | 260 | sub-micromolar
7 | CC(C)(CC(=O)NCC(=O)O)CN1C(=O)c2cc3oc(-c4ccc(Cl)cc4)cc3n2C1=S [Compound 18, {4-[2-(4-Chloro-phenyl)-6-oxo-4-thioxo-6H-1-oxa-3b,5-diaza-cyclopenta[a]pentalen-5-yl]-3,3-dimethyl-butyrylamino}-acetic acid] | 460 | 1400 | – | 2000 | –
8 | CCOC(=O)CC(C)(C)CN1C(=O)c2cc3oc(-c4ccc(Cl)cc4)cc3n2C1=S [Compound 10, 4-[2-(4-Chloro-phenyl)-6-oxo-4-thioxo-6H-1-oxa-3b,5-diaza-cyclopenta[a]pentalen-5-yl]-3,3-dimethyl-butyric acid ethyl ester] | 1500 | 200 | sub-micromolar | 170 | sub-micromolar
9 | CC(C)(CC(=O)N1CCOCC1)CN1C(=O)c2cc3oc(-c4ccc(Cl)cc4)cc3n2C1=S [Compound 17, 2-(4-Chloro-phenyl)-5-(2,2-dimethyl-4-morpholin-4-yl-4-oxo-butyl)-4-thioxo-4,5-dihydro-1-oxa-3b,5-diaza-cyclopenta[a]pentalen-6-one] | 150 | 870 | sub-micromolar | 420 | sub-micromolar
10 | CN(C)CCNC(=O)CC(C)(C)CN1C(=O)c2cc3oc(-c4ccc(Cl)cc4)cc3n2C1=S [Compound 14, 4-[2-(4-Chloro-phenyl)-6-oxo-4-thioxo-6H-1-oxa-3b,5-diaza-cyclopenta[a]pentalen-5-yl]-N-(2-dimethylamino-ethyl)-3,3-dimethyl-butyramide] | 120 | 470 | sub-micromolar | 260 | sub-micromolar
11 | CC(C)(CC(=O)NO)CN1C(=O)c2cc3oc(-c4ccc([N+](=O)[O-])cc4)cc3n2C1=S [Compound 9, N-hydroxy-3,3-dimethyl-4-[2-(4-nitro-phenyl)-6-oxo-4-thioxo-6H-1-oxa-3b,5-diaza-cyclopenta[a]pentalen-5-yl]-butyramide] | 170 | – | – | – | –
12 | CCOC(=O)CCCN1C(=O)c2cc3oc(-c4ccc([N+](=O)[O-])cc4)cc3n2C1=S [Compound 1, ethyl 4-[2-(4-nitro-phenyl)-6-oxo-4-thioxo-6H-1-oxa-3b,5-diaza-cyclopenta[a]pentalen-5-yl]-butyric acid ethyl ester] | – | 140 | – | 130 | –
13 | CCOC(=O)CCCn1c(=S)sc2c(I)snc21 [Compound 44, ethyl 4-(3-iodo-5-thioxo-thiazolo[4,5-c]isothiazol-6-yl)-butyric acid ethyl ester] | 7000 | – | – | – | –
14 | CON(C)C(=O)CCCN1C(=O)c2cc3oc(-c4ccc([N+](=O)[O-])cc4)cc3n2C1=S [Compound 3, N-methoxy-N-methyl-4-[2-(4-nitro-phenyl)-6-oxo-4-thioxo-6H-1-oxa-3b,5-diaza-cyclopenta[a]pentalen-5-yl]-butyramide] | – | 90 | sub-micromolar | 250 | sub-micromolar
15 | CCOP(=O)(CCCN1C(=O)c2cc3oc(-c4ccc(Cl)cc4)cc3n2C1=S)OCC [Compound 27, {3-[2-(4-chloro-phenyl)-6-oxo-4-thioxo-6H-1-oxa-3b,5-diaza-cyclopenta[a]pentalen-5-yl]-propyl}-phosphonic acid diethyl ester] | 260 | – | – | 300 | –
16 | CCOC(=O)CCCN1C(=O)c2cc3oc(Oc4ccc([N+](=O)[O-])cc4)cc3n2C1=S [Compound 33, ethyl 4-[2-(4-nitro-phenoxy)-6-oxo-4-thioxo-6H-1-oxa-3b,5-diaza-cyclopenta[a]pentalen-5-yl]-butyric acid ethyl ester] | 16000 | – | – | – | –
17 | CCOC(=O)CCCn1c(=S)sc2c(-c3ccc(-c4ccc([N+](=O)[O-])cc4)o3)snc21 [Compound 45, 4-{3-[5-(4-nitro-phenyl)-furan-2-yl]-5-thioxo-thiazolo[4,5-c]isothiazol-6-yl}-butyric acid ethyl ester] | – | – | – | 15000 | –
18 | CCOC(=O)CCCN1C(=O)c2cc3oc4ccc([N+](=O)[O-])cc4c3n2C1=S [Compound 38, ethyl 4-[2,3-(3-nitro-phenyl)-6-oxo-4-thioxo-6H-1-oxa-3b,5-diaza-cyclopenta[a]pentalen-5-yl]-butyric acid ethyl ester] | – | 11500 | – | 22500 | –
